Measured values published in ChEMBL document CHEMBL1123633, “Cardiotonic agents. 8. Selective inhibitors of adenosine 3',5'-cyclic phosphate phosphodiesterase III. Elaboration of a five-point model for positive inotropic activity” (J Med Chem, 1987).

Legend:
Phosphodiesterase 3 = Phosphodiesterase 3 (Homo sapiens, UniProt Q14432+Q13370); assay: Inhibition of cAMP PDE III enzyme; assay type: protein assay, Cavia porcellus
Canis familiaris = assay: 50% increase in myocardial contractility (dP/dt max) in anesthetized dogs on intravenous dose; assay type: functional; details: Canis lupus familiaris, Myocardium
Phosphodiesterase 1 [1] = biological target: T1, Phosphodiesterase 1 (Homo sapiens, UniProt P54750+Q01064+Q14123); assay: Inhibition cGMP PDE I enzyme; assay type: protein assay, Cavia porcellus
[2] = biological target: T2, cGMP-dependent 3',5'-cyclic phosphodiesterase (Homo sapiens, UniProt O00408); assay: Inhibition of cGMP PDE II enzyme; set-up: species or system Cavia porcellus
Phosphodiesterase 1 [3] = biological target: T1, Phosphodiesterase 1; assay: Inhibition of cAMP PDE I enzyme; assay type: protein assay, Cavia porcellus
[4] = biological target: T2, cGMP-dependent 3',5'-cyclic phosphodiesterase; assay: Inhibition of cAMP PDE II enzyme; set-up: species or system Cavia porcellus

T2 sequence (O00408 whole entry): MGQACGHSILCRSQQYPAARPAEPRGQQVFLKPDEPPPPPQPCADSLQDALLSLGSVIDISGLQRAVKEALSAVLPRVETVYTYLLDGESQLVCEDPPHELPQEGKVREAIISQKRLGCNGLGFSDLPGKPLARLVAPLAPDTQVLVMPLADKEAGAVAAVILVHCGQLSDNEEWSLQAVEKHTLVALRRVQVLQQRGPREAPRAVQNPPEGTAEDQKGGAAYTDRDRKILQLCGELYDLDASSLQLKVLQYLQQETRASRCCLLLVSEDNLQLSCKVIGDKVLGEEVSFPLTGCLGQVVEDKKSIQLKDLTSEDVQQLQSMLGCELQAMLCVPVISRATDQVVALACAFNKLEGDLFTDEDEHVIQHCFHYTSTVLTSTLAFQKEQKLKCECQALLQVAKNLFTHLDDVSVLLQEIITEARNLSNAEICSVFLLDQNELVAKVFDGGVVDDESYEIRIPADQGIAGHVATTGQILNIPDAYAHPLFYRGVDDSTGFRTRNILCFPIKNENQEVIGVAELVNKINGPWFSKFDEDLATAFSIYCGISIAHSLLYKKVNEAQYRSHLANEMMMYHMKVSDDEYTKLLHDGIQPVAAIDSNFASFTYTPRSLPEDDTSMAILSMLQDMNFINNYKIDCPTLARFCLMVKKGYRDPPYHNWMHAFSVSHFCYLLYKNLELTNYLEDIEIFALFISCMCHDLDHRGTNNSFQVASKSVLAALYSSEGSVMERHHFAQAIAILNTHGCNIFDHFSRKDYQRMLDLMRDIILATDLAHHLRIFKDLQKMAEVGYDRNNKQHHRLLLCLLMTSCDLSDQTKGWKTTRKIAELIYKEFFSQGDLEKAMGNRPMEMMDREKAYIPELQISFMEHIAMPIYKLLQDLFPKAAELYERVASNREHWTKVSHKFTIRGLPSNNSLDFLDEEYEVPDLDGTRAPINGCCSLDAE

| Compound | IC50 (Phosphodiesterase 1 [1]) [µM] | ED50 (Canis familiaris) [mg/kg] | also measured |
| --- | --- | --- | --- |
| CC1CC(=O)NN=C1c1ccc2c(c1)CCC(=O)N2C (stereo unspecified) | – | – | IC50 (Phosphodiesterase 3): 0.12 µM |
| O=C1CC2Cc3cc(-n4ccnc4)ccc3C2=NN1 (stereo unspecified) | – | 0.023 | – |
| O=C1CC2Cc3cc(-n4cnc5c4CCCC5)ccc3C2=NN1 (stereo unspecified) | – | 0.05 | IC50 (Phosphodiesterase 3): 1.2 µM |
| CSc1ccc(C(=O)c2[nH]c(=O)[nH]c2C)cc1 [ENOXIMONE] | – | 0.28 | – |
| Cc1[nH]c(=O)c(C#N)cc1-c1ccncc1 [MILRINONE] | – | 0.04 | – |
| CCc1[nH]c(=O)[nH]c1C(=O)c1ccncc1 [PIROXIMONE] | – | 0.1 | – |

Second part, led by results:

| IC50 (Phosphodiesterase 1 [1]) [µM] | Compound | ED50 (Canis familiaris) [mg/kg] | also measured |
| --- | --- | --- | --- |
| > 1000 | O=C1CCC(c2cccc(-n3ccnc3)c2)=NN1 | – | – |
| 130 | CC1=C(c2ccc(-n3ccnc3)cc2)CC(C#N)C(=O)N1 (stereo unspecified) | 0.01 | IC50 [2]: 120 µM; IC50 (Phosphodiesterase 1 [3]): 39 µM; IC50 [4]: 43 µM |
| > 1000 | Nc1cc(-c2ccncc2)c[nH]c1=O [INAMRINONE] | 0.39 | IC50 (Phosphodiesterase 1 [3]): > 1000 µM |
